“And” between values parts separate entries of the source, which are not always exact repeats. Equal entries are not always repeated.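 Tested at 5 concentrations; 48 h exposure; 96-well plates; endpoints linearly interpolated, else capped at highest concentration. At the GI50, growth is halved. At the TGI there is no net growth.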
Columns and labels:
Test in all cases: inhibition of tumour cell growth, NCI panel, 48 h
A498 renal = test system: A498 renal
ACHN renal = test system: ACHN renal
CCRF-CEM leukemia = test system: CCRF-CEM leukemia
EKVX NSCLC = test system: EKVX NSCLC
KM12 colon = test system: KM12 colon
MDA-MB-435 = test system: MDA-MB-435
MOLT-4 leukemia = test system: MOLT-4 leukemia
NCI-H23 lung = test system: NCI-H23 lung
PC-3 prostate = test system: PC-3 prostate
SK-OV-3 ovarian = test system: SK-OV-3 ovarian

Row | Structure (SMILES) | GI50 (A498 renal) | TGI (A498 renal) | GI50 (ACHN renal) | TGI (ACHN renal) | GI50 (CCRF-CEM leukemia) | TGI (CCRF-CEM leukemia) [µM] | GI50 (EKVX NSCLC) [µM] | TGI (EKVX NSCLC) | GI50 (KM12 colon) [nM] | TGI (KM12 colon) | GI50 (MDA-MB-435) | TGI (MDA-MB-435) | GI50 (MOLT-4 leukemia) | TGI (MOLT-4 leukemia) | GI50 (NCI-H23 lung) | TGI (NCI-H23 lung) | GI50 (PC-3 prostate) | TGI (PC-3 prostate) [µM] | GI50 (SK-OV-3 ovarian) | TGI (SK-OV-3 ovarian)
1 | CC12CC=CCC1CCC1C2CCC2(C)C(c3ccc(=O)oc3)CCC12O (stereo unspecified) | 76.8 nM | 0.54 µM | 36.9 nM | 0.138 µM | 37 nM | 0.303 | 0.0602 | 0.212 µM | 315 | 1.55 µM | 179 nM | 0.727 µM | 29.2 nM | 0.113 µM | 54.8 nM | 0.33 µM | 74.7 nM | 0.309 | 276 nM | 0.688 µM
2 | C/C=C(/C)c1cnc(CC(C)C)c(=O)[nH]1 |  | > 100 µM |  | > 100 µM |  | > 100 |  | > 100 µM |  | > 100 µM |  | > 100 µM |  | > 100 µM |  | > 100 µM |  | > 100 |  | > 100 µM
3 | CC(=O)c1cc(-c2ccccc2N)n(-c2ccc3c(c2)OCO3)c1C | 195 nM | 0.808 µM | 398 nM | > 100 µM | 336 nM | > 100 | 0.392 | > 100 µM | 295 | > 37.7 µM | 163 nM | 0.434 µM | 380 nM | > 100 µM | 218 nM | 97.6 µM | 317 nM | > 100 | 292 nM | 45.3 µM
4 | Cc1nn(CNc2ccccc2C(F)(F)F)c(=S)n1/N=C/c1ccc(F)cc1 | > 100000 nM | > 100 µM | > 100000 nM | > 100 µM | 14200 nM | > 100 | 42 | > 100 µM | > 100000 | > 100 µM | > 100000 nM | > 100 µM | 46600 nM | > 100 µM | > 100000 nM | > 100 µM | 97900 nM | > 100 | > 100000 nM | > 100 µM
5 | CC[C@@]12C=CCN3CC[C@]4(c5cc(NC(=O)COc6cc(OCC(=O)Nc7cc8c(cc7OC)N(C)[C@H]7[C@@](O)(C(=O)OC)[C@H](OC(C)=O)[C@]9(CC)C=CCN%10CC[C@]87[C@@H]%109)cc7oc(-c8ccccc8)cc(=O)c67)c(OC)cc5N(C)[C@@H]4[C@](O)(C(=O)OC)[C@H]1OC(C)=O)[C@H]32 | 7600 nM | 22.3 µM | > 100000 nM | > 100 µM | 3510 nM | > 100 | 3.28 | > 100 µM |  |  | 17700 nM | > 100 µM | 2790 nM | > 100 µM | 2150 nM | 6.58 µM | 2910 nM | > 100 | 6490 nM | 19.7 µM
6 | Clc1ccc2c(c1)C(N1CCNCC1)=Nc1ccccc1O2 | 3100 nM | 5.46 µM | 1970 nM | 4.2 µM | 1900 nM | 4.77 | 3.47 | 17.4 µM | 1730 | 3.28 µM | 1650 nM | 3.11 µM | 1820 nM | 4.19 µM | 3460 nM | 14.3 µM | 1540 nM | 8.74 | 1940 nM | 4.5 µM
7 | CC(C)(C)n1cc(-c2ccnc(NCCCNS(=O)(=O)c3ccc(Br)cc3)c2)c(-c2cccc(O)c2)n1 | 1330 nM | 3.47 µM | 1990 nM | 3.89 µM | 2260 nM | > 100 | 1.95 | 4.58 µM | 2110 | 4.37 µM | 1820 nM | 3.29 µM | 2300 nM | 6.74 µM | 1830 nM | 3.72 µM | 1600 nM | 4.08 | 2530 nM | 6.26 µM
8 | Cc1cc(=O)oc2cc(OC(=O)N(CCCl)CCCl)ccc12 |  | > 100 µM |  | > 100 µM |  | > 100 |  | > 100 µM |  | > 100 µM |  | > 100 µM |  | > 100 µM |  | > 100 µM |  | > 100 |  | > 100 µM
9 | O=C(Nc1ccc(Br)cc1)Nc1nn(C(=O)Nc2ccc(Br)cc2)c2ccccc12 | 31400 nM | > 81 µM | 61900 nM | > 100 µM | 7080 nM | > 22.8 | 40.3 | > 100 µM | > 88800 | > 100 µM | > 100000 nM | > 100 µM | 2490 nM |  | 29100 nM | > 100 µM | > 51600 nM | > 100 | 16900 nM | 54 µM
10 | Clc1ccc2ns[s+]c2c1 |  | > 100 µM |  | > 94.3 µM |  | > 81.9 |  | > 100 µM |  | > 100 µM |  | > 100 µM |  | > 100 µM |  | > 46.4 µM |  | > 100 |  | > 100 µM
11 | NNS(=O)(=O)c1cc(C(=O)O)cc(C(=O)O)c1 |  | > 100 µM |  | > 100 µM |  | > 100 |  | > 100 µM |  | > 100 µM |  | > 100 µM |  | > 100 µM |  | > 100 µM |  | > 100 |  | > 100 µM
12 | COC(=O)[C@H]1[C@H]2C[C@@H]3c4[nH]c5cc(OC)ccc5c4CCN3C[C@H]2C[C@@H](OC(=O)/C=C/c2cc(OC)c(OC)c(OC)c2)[C@@H]1OC | 4230 nM | 18.6 µM | 4050 nM | 21.5 µM | 1480 nM | 5.62 | 14.1 | > 100 µM | 4440 | 28.5 µM | 3220 nM | 19.4 µM | 3330 nM | > 100 µM | 17600 nM | 53 µM | 6910 nM | > 100 | 15400 nM | 32.3 µM
13 | Cc1cnc(Nc2ccc(OCCN3CCCC3)cc2)nc1Nc1cccc(S(=O)(=O)NC(C)(C)C)c1 | 144 nM and 385 nM | 0.869 µM and 1.57 µM | 92.7 nM and 733 nM | 1.89 µM and 3.49 µM | 398 nM and 1300 nM | > 21.7 |  | 12.9 µM and > 10 µM | 361 | 8.72 µM and > 10 µM | 121 nM and 1140 nM | 11.9 µM and > 10 µM | 180 nM and 1140 nM | 12.5 µM and > 10 µM | 307 nM and 1920 nM | 7.05 µM and > 10 µM | 383 nM and 1550 nM | > 51 | 171 nM and 631 nM | 2.62 µM and 3.14 µM
14 | COC(=O)c1ccc(CN2C(=O)C(Cl)=C(Nc3ccc(OC)c(Cl)c3)C2=O)cc1 | > 50000 nM | > 50 µM | 8440 nM | 18.4 µM | > 50000 nM | > 50 | 22.3 | > 50 µM | 5420 | > 50 µM | 47300 nM | > 50 µM | 5830 nM | 49 µM | 14400 nM | 39.3 µM | 44300 nM | > 50 | 33900 nM | > 50 µM

— PubChem BioAssay (NCI)
